Test results reported in patent publication US20030212147A1, “Enzyme activated chemotherapy of liver cancer” (priority 2003, published 2003).
Entries after “also recorded” stand apart in the source; their conditions may differ.

What was measured:
HepG2 cells = assay: LDH-release cytotoxicity assay in HepG2 cells cultured in isotonic or hypertonic (AR-inducing) medium; assay type: cell-based, human; settings: for effect on HepG2 cells (LDH release): 50 μM ND; for toxic effect (LDH released into the medium): 5 hours
Method: HepG2 cells, a human liver cell line, were purchased from the American Type Culture Collection (Rockville, Md.). The basic (isotonic) medium was MEM medium supplemented with 10% fetal bovine serum, 100 U/ml penicillin, 100 μg/ml streptomycin, 0.1 mM MEM non-essential amino acids, and 1 mM sodium pyruvate. Medium was made hypertonic by adding NaCl to 100 mM, and the osmolarity was about 500 mosmol/kg as determined by osmometer. ND was dissolved in 20% ethanol to make a 50 mM stock solution. NQ was dissolved in 100% ethanol to make a 50 mM stock solution. AL1576 was dissolved in 20 mM NaOH to make a 20 mM stock solution.
Cells were first cultured in isotonic medium until 70% confluent. The medium was then made hypertonic by NaCl and incubated for 72 hours. The cells were then seeded onto 24-well plate at 8×10^4 cells/well and incubated for 24 hours in hypertonic medium. Cells for isotonic control were processed in parallel except that no NaCl was added. ND and AR inhibitor AL1576 were added as indicated.
Cytotoxicity was measured by the percent of LDH (lactate dehydrogenase) released into the medium. LDH activity was determined by Cytotoxicity Detection Kit. The optical density of the colored product was measured at 492 and 690 nm by SpectraMax 340 Microplate reader (Molecular Devices). LDH released into the medium was measured by taking samples of the medium. Total LDH was determined by taking samples of cell extracts lysed by Triton X-100 at a final concentration of 1%.

[1] = assay type: physicochemical
Description: Naphthalene is insoluble in water. […] Accordingly, ND, the metabolized product of naphthalene (see FIG. 1), rather than naphthalene, was used to test the cytotoxic activity of the drug that is activated AR overproduced by HepG2 cells.

[2] = rabbit cataract model; taken as the likely toxic level for oral administration; cited from earlier work

In the case of `O=C1NC(=O)C2(N1)c1cc(F)ccc1-c1ccc(F)cc12` [AL1576, 2,7-difluorospirofluorene-9,5′-imidazolidine-2′4′-dione, reference compound], the “protection of HepG2 cells against the toxic effects of ND by the AR inhibitor” value (HepG2 cells; HepG2 cells in hypertonic medium with ND) is reported as “can protect these cells against the toxic effects of ND”.

For `OC1C=Cc2ccccc2C1O` (stereo not shown) [ND, naphthalene-1,2-dihydrodiol], the “effect on HepG2 cells (LDH release)” value (HepG2 cells; hypertonic medium) was “no effect”, the “effect on HepG2 cells (LDH release)” value (HepG2 cells; isotonic medium) was “no effect” and the “toxic effect (LDH released into the medium)” value (HepG2 cells; 500 μM ND, HepG2 cells in hypertonic medium (AR overexpressed)) was “highly toxic”. For the same compound, the “toxic effect (LDH released into the medium)” value (HepG2 cells; 500 μM ND, HepG2 cells in isotonic medium) was “no sign of toxic effects; also recorded: no toxic effect”, the “LDH released relative to that released by control cells (isotonic medium)” value (HepG2 cells; 500 μM ND, hypertonic versus isotonic medium) was “more than 10 times” and the “sensitivity of HepG2 cells to ND in hypertonic versus isotonic medium” value (HepG2 cells; hypertonic versus isotonic medium) was 10 times.

For `c1ccc2ccccc2c1` [Naphthalene], the “behaviour when added to the medium” value [1] is given as “quickly precipitates”, the solubility in water [1] is given as “insoluble” and the “dose at which cataract and degeneration of the retina develop” value [2] is given as “about 1 g/kg body weight”.
